“And” between values parts separate entries of the source, which are not always exact repeats. Equal entries are not always repeated.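 Briefly, cells in 96-well plates were exposed to five compound concentrations for 48 h, and endpoints were estimated by linear interpolation. GI50: concentration for 50% inhibition of growth. The concentration for full growth arrest is given as TGI.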
Assays:
Experiment in all cases: inhibition of tumour cell growth, NCI panel, 48 h
NCI-H522 lung = system: NCI-H522 lung
SNB-19 CNS = system: SNB-19 CNS
HL-60(TB) leukemia = system: HL-60(TB) leukemia
COLO 205 colon = system: COLO 205 colon
NCI-H23 lung = system: NCI-H23 lung
TK-10 renal = system: TK-10 renal
EKVX NSCLC = system: EKVX NSCLC
IGROV1 ovarian = system: IGROV1 ovarian
LOX IMVI melanoma = system: LOX IMVI melanoma
RPMI-8226 leukemia = system: RPMI-8226 leukemia

| Compound | GI50 (NCI-H522 lung) | TGI (NCI-H522 lung) | GI50 (SNB-19 CNS) | TGI (SNB-19 CNS) | GI50 (HL-60(TB) leukemia) | TGI (HL-60(TB) leukemia) | GI50 (COLO 205 colon) | TGI (COLO 205 colon) | GI50 (NCI-H23 lung) | TGI (NCI-H23 lung) | GI50 (TK-10 renal) | TGI (TK-10 renal) | GI50 (EKVX NSCLC) | TGI (EKVX NSCLC) | GI50 (IGROV1 ovarian) | TGI (IGROV1 ovarian) | GI50 (LOX IMVI melanoma) | TGI (LOX IMVI melanoma) | GI50 (RPMI-8226 leukemia) | TGI (RPMI-8226 leukemia) |
| --- | --- | --- | --- | --- | --- | --- | --- | --- | --- | --- | --- | --- | --- | --- | --- | --- | --- | --- | --- | --- |
| O=C1c2ccccc2-c2c1c1ccccc1c(=O)n2CCCNCCCn1c2c(c3ccccc3c1=O)C(=O)c1ccccc1-2 | 13.7 µM | > 50 µM | 6.83 µM | > 40.5 µM | > 50 µM | > 50 µM | 10.6 µM | > 31.1 µM | 10.4 µM | > 29.7 µM | 5.34 µM | 18 µM | 3.98 µM | 14.8 µM | 1.63 µM | > 50 µM | 1.49 µM | 8.25 µM | 2.58 µM | 15.9 µM |
| CC1=C(C)C(=O)c2c(c(C(=O)c3ccccc3)c3nc4ccccc4n3c2C)C1=O | > 100 µM | > 100 µM | 38.1 µM | > 100 µM | > 100 µM | > 100 µM | > 100 µM | > 100 µM | 46.5 µM | > 100 µM | 59.5 µM | > 100 µM | 68.2 µM | > 100 µM | 55.2 µM | > 100 µM | 69.9 µM | > 100 µM | > 100 µM | > 100 µM |
| Oc1cccc2c1NC1=C(CCC/C1=C\c1ccccc1)C2 |  | 83.5 µM |  | > 100 µM |  | > 100 µM |  | > 100 µM |  | > 100 µM |  | > 100 µM |  | > 100 µM |  | > 100 µM |  | > 100 µM |  | > 100 µM |
| CN(C)CCCCN1CCc2c(n(C)c3ccccc23)C1=O |  | > 82 µM |  | > 100 µM |  | > 100 µM |  | 61.7 µM and 33 µM |  | > 100 µM | > 100 µM and 38.8 µM | > 100 µM |  | 85.9 µM and > 100 µM |  | > 100 µM |  | > 72.9 µM and 42.8 µM | 61.7 µM and 29.3 µM | 93.2 µM and 64.7 µM |
| CC(Cn1c2c3ccccc3ccc2c2oc(=O)c3ccccc3c21)N(C)C (configuration not stated) |  | > 100 µM |  | > 100 µM |  | > 100 µM |  | > 100 µM |  | > 100 µM |  | > 100 µM |  | > 100 µM |  | > 100 µM |  | > 100 µM |  | > 100 µM |
| CN(C)c1ccc(-c2cc(=O)c3ccccc3[nH]2)cc1 |  | > 100 µM |  | > 100 µM |  | > 100 µM |  | > 100 µM |  | > 100 µM |  | > 100 µM |  | > 100 µM |  | > 100 µM |  | > 100 µM |  | > 100 µM |
| CCN(CC)CCCN(c1cc(OC)cc2nccnc12)S(=O)(=O)c1ccc(C)cc1 |  | > 100 µM |  | > 100 µM |  | > 100 µM |  | > 100 µM |  | > 100 µM |  | > 100 µM |  | > 100 µM |  | > 100 µM |  | > 100 µM |  | > 100 µM |
| CC(C)(C)[Si](C)(C)OCC1CCC(n2cnc3c(NC(=O)c4ccccc4)ncnc32)O1 (configuration not stated) |  | 33.2 µM |  | 33.9 µM |  | 38.2 µM |  | 35.6 µM |  | 37.4 µM |  | 38.6 µM |  | 32.6 µM |  | 32.7 µM |  | 37.1 µM |  | 68.5 µM |
| CN1CCN(Cc2ccc(-c3cc4ncnc(Nc5ccc(OCc6cccc(F)c6)c(Cl)c5)c4s3)o2)CC1 | 4.75 µM | 9.46 µM | 4.8 µM | 9.86 µM | 4.62 µM | 9.34 µM | 4.8 µM | 8.66 µM | 4.29 µM | 8.44 µM | 3.02 µM | 6.64 µM | 2.95 µM | 8.78 µM | 3.51 µM | 8.34 µM | 3.66 µM | 8.07 µM | 3.91 µM | 9.52 µM |
| Cc1[nH]c(=O)[nH]c(=O)c1N(CCF)CCCl |  | 375 µM and 416 µM and 519 µM | 711 µM and 250 µM | 1160 µM and 2500 µM and 1820 µM | 42.6 µM | 246 µM and 302 µM and 219 µM | 337 µM | 930 µM and 805 µM | 255 µM and 512 µM | 635 µM and 2500 µM and 631 µM |  | 1070 µM | 165 µM and 406 µM and 557 µM | 443 µM and 762 µM and 1200 µM | 284 µM | 793 µM and 1260 µM and 1270 µM | 236 µM and 290 µM and 139 µM | 726 µM and 671 µM and 787 µM | 161 µM and 190 µM and 122 µM | 515 µM and 838 µM and 1270 µM |
| COc1nc2c(OC)cccc2c(OC)c1C=O |  | > 100 µM |  | > 100 µM |  | > 100 µM |  | > 100 µM |  | > 100 µM |  | > 100 µM |  | > 100 µM |  | > 100 µM |  | > 100 µM |  | > 100 µM |
| CCN1C(=O)C/C(=C\C(C)=O)Nc2ccccc21 |  | > 100 µM |  | > 100 µM | > 100 µM | > 100 µM |  | > 100 µM |  | > 100 µM |  | > 100 µM |  | > 100 µM |  | > 100 µM |  | > 100 µM | > 100 µM | > 100 µM |
| CC/C=C\C[C@H](O)C/C=C1/C(=O)C=C[C@@H]1C/C=C\CCCC(=O)NC(C)C | 1.59 µM | 3.24 µM | 8.75 µM | 22.6 µM | 2.67 µM | 9.1 µM | 2.51 µM | 5.44 µM | 2.33 µM | 6.09 µM | 3.73 µM | 9.64 µM | 4 µM | 15 µM | 2.94 µM | 10 µM | 1.06 µM | 2.5 µM | 2.73 µM | 7.02 µM |
| CCn1c(=O)c(-c2ccn[nH]2)cc2c(C)nc(N)nc21 | 1.5 µM | > 100 µM | 4.57 µM | > 100 µM | 2.88 µM | > 100 µM | 1.78 µM | 10.4 µM | 2.07 µM | > 100 µM | 0.871 µM | 4.62 µM | 0.691 µM | 11.1 µM | 0.32 µM | 2.17 µM | 1.73 µM | 14.4 µM | 0.821 µM | 12.3 µM |
| O=C(Cc1nc2ccccc2s1)C(=O)Nc1ccc(Cl)cc1 |  | > 100 µM |  | > 100 µM |  | > 100 µM |  | > 100 µM |  | > 100 µM |  | > 100 µM |  | > 100 µM |  | > 100 µM |  | > 100 µM |  | > 100 µM |
| C=C1C(=O)O[C@H]2[C@H]1CC/C(COC(=O)C(=O)c1c[nH]c3ccccc13)=C\CC[C@@]1(C)O[C@@H]21 | 0.878 µM | 2.4 µM | 10.6 µM | 26 µM | 1.86 µM | 4.67 µM | 1.8 µM | 3.91 µM | 3.92 µM | 16 µM | 1.38 µM | 2.81 µM | 8.31 µM | 20.7 µM | 2.11 µM | 4.39 µM | 1.48 µM | 3.04 µM | 2.07 µM | 10.9 µM |
| O=C(Nc1ccc(Cl)c(C(F)(F)F)c1)C(=O)C(C(=O)/C=C/c1ccccc1)C1OC(=O)c2ccccc21 (configuration not stated) |  | > 100 µM |  | > 100 µM |  | > 100 µM |  | > 100 µM |  | > 100 µM |  | > 100 µM |  | > 100 µM |  | > 100 µM |  | > 100 µM |  | > 100 µM |
| Cn1ccnc1C(=O)/C=C/c1ccc(CC(=O)Nc2ccc(Cl)cc2)cc1 | 4.85 µM | > 25 µM | 1.77 µM | > 25 µM | 4.81 µM | > 25 µM | 9.44 µM | > 25 µM | 2.04 µM | > 25 µM | 12.3 µM | > 25 µM | 15.6 µM | > 25 µM | 5.27 µM | > 25 µM | 1.07 µM | > 25 µM | 0.959 µM | > 25 µM |
| COc1cccc(-c2nn(-c3ccccc3)cc2-c2ccnc(NCCNS(=O)(=O)c3ccc(Cl)cc3)c2)c1 | 2.47 µM | 9.76 µM | 7.44 µM | > 100 µM | 2.56 µM | 17.9 µM | 3.33 µM | 14.7 µM | 4.32 µM | > 100 µM | 4.75 µM | > 100 µM | 3.84 µM | > 100 µM | 6.63 µM | > 100 µM | 3.12 µM | > 100 µM | 2.74 µM | 13.3 µM |
| CC(O)C1OC(O)C2OC(C)(C)OC12 (configuration not stated) |  | > 100 µM |  | > 100 µM |  | > 100 µM |  | > 100 µM |  | > 100 µM |  | > 100 µM |  | > 100 µM |  | > 100 µM |  | > 100 µM |  | > 100 µM |
| O=C(O)c1ccc(NC(=O)C2C(=O)C(=O)N(c3ccc(C(=O)O)cc3)C2=O)cc1 (configuration not stated) |  | > 100 µM |  | > 100 µM |  | > 100 µM |  | > 100 µM |  | > 100 µM |  | > 100 µM |  | > 100 µM |  | > 100 µM |  | > 100 µM |  | > 100 µM |
| Cc1ccc(NC(c2ccccc2)c2ccc3cccnc3c2O)cc1 (configuration not stated) |  | 8.53 µM |  | 20 µM |  | 11.7 µM |  | 16.5 µM |  | 19.2 µM |  | 14.3 µM |  | 15 µM |  | 14 µM |  | 16.4 µM |  | 19.2 µM |

Source: PubChem BioAssay (NCI)
